Results: ChEMBL document CHEMBL1133843, “3-Aryl-4-aryloyl-1-(1H-imidazol-5-yl)methylpyrrole, a novel class of farnesyltransferase inhibitors” (Bioorg Med Chem Lett, 2001)

Biological target: Protein farnesyltransferase (Homo sapiens, UniProt P49354+P49356)
Assay: Inhibition of [3H]FPP incorporation into Ha-ras protein by Farnesyltransferase
Assay type: functional

Row | IC50 [nM] | SMILES
1 | 2300 | Cc1ccc(C(=O)c2cn(Cc3c[nH]cn3)cc2-c2ccc3ccccc3c2)cc1
2 | 16 | O=C(c1ccc(Oc2ccccc2)cc1)c1cn(Cc2c[nH]cn2)cc1-c1cccc2ccccc12
3 | 115 | O=C(c1ccccc1)c1cn(Cc2c[nH]cn2)cc1-c1cccc2ccccc12
4 | 88 | O=C(c1ccccc1Br)c1cn(Cc2c[nH]cn2)cc1-c1cccc2ccccc12
5 | 470 | Cc1ccc(C(=O)c2cn(Cc3c[nH]cn3)cc2-c2c3ccccc3cc3ccccc23)cc1
6 | 32 | O=C(c1ccc(Br)cc1)c1cn(Cc2c[nH]cn2)cc1-c1cccc2ccccc12
7 | 1.4 | CSCC[C@H](NC(=O)c1ccc(CNCc2c[nH]cn2)cc1-c1ccccc1C)C(=O)O
8 | 4.6 | Cn1cncc1Cn1cc(C(=O)c2ccc(Oc3ccccc3)cc2)c(-c2cccc3ccccc23)c1
9 | 65 | Cc1ccc(C(=O)c2cn(Cc3c[nH]cn3)cc2-c2cccc3ccccc23)cc1
